Results reported in patent US9630922B2, “3-spiro-7-hydroxamic acid tetralins as HDAC inhibitors” (Forma Therapeutics, Inc., priority 2015, dated 2017).

Target: T1, HDAC6 (Homo sapiens, UniProt Q9UBN7)
T1 construct: Full length human recombinant HDAC6 protein was expressed in baculoviral system; made in house; host or cells: baculoviral system
T1 sequence (Q9UBN7 1-1215): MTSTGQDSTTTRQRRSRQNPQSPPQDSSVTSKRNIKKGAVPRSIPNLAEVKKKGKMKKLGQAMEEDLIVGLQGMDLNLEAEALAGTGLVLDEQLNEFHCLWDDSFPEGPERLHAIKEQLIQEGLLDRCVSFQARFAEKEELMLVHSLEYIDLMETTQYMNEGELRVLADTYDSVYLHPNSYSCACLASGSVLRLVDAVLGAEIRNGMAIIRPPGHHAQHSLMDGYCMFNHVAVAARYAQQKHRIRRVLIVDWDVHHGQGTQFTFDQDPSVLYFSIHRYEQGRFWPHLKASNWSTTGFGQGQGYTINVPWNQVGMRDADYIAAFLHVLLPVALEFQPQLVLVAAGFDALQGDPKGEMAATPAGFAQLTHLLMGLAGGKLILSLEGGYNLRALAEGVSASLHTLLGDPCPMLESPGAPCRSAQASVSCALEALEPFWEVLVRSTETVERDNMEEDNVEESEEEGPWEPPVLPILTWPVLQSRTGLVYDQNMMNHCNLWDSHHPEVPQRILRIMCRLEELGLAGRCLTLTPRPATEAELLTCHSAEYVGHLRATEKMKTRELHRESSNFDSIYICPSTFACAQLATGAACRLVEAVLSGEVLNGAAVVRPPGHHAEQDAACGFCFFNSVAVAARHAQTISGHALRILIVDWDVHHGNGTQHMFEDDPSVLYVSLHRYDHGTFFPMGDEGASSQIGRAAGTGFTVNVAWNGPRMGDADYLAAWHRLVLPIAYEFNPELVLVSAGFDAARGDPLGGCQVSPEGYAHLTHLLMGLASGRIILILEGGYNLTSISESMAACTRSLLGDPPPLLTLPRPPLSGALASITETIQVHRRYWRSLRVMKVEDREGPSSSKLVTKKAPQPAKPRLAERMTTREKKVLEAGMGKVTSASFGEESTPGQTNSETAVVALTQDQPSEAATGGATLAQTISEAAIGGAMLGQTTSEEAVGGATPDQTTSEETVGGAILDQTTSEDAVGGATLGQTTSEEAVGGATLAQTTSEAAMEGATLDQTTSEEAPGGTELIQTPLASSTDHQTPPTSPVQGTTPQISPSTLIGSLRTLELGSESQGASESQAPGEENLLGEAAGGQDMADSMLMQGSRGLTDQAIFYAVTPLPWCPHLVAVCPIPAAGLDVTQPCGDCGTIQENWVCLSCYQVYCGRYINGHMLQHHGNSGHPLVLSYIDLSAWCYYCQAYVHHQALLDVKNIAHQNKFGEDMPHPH
Test: In vitro Histone Deacetylase Assay (enzymatic HDAC6 electrophoretic mobility shift assay)
Assay type: biochemical
Details: full length human recombinant HDAC6, 1 nM enzyme, 2 μM peptide substrate RHKK(Ac)-NH2, 25° C.; read-out: HDAC6 activity range
Method in brief: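 Deacetylation was read by microfluidic mobility shift as product/(substrate+product) peak ratio and normalised to 0% and 100% inhibition controls. Reactions used 1 nM baculovirus-expressed full-length human HDAC6 and 2 μM labelled RHKK(Ac)-NH2 in pH 7.5 HEPES buffer with 1% DMSO at 25 °C. IC50 was from 4-parameter fits of 12 concentrations.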

SMILES | IC50 [nM]
O=C(NO)c1ccc2c(c1)CC[C@]1(CCN(c3ccc4nccn4c3)C1=O)C2 [Compound I-99, (R)-N-hydroxy-1′-(imidazo[1,2-a]pyridin-6-yl)-2′-oxo-3,4-dihydro-1H-spiro[naphthalene-2,3′-pyrrolidine]-6-carboxamide] | ≤ 100
CC(C)(C)c1ccc(CN2CC[C@@]3(CCc4cc(C(=O)NO)ccc4C3)C2=O)cc1 [Compound I-85, (S)-1′-(4-(tert-butyl)benzyl)-N-hydroxy-2′-oxo-3,4-dihydro-1H-spiro[naphthalene-2,3′-pyrrolidine]-6-carboxamide] | 100 to 500
O=C(NO)c1ccc2c(c1)CC[C@@]1(CCCN(CC3CCC3)C1=O)C2 (single isomer, unassigned) [Compound I-185] | ≤ 100
O=C(NO)c1ccc2c(c1)CC[C@]1(CCCN(C3CCCC3)C1=O)C2 [Compound I-200, (S)-1′-cyclopentyl-N-hydroxy-2′-oxo-3,4-dihydro-1H-spiro[naphthalene-2,3′-piperidine]-6-carboxamide] | ≤ 100
O=C(NO)c1ccc2c(c1)CCC1(CC(=O)N(CC3COC3)C1)C2 (single isomer, unassigned) [Compound I-217] | 100 to 500
Cc1ccccc1CN1CC[C@]2(CCc3cc(C(=O)NO)ccc3C2)C1=O [Compound I-38, (R)-N-hydroxy-1′-(2-methylbenzyl)-2′-oxo-3,4-dihydro-1H-spiro[naphthalene-2,3′-pyrrolidine]-6-carboxamide] | ≤ 100
O=C(NO)c1ccc2c(c1)CCC1(CCN(Cc3nc4ccccc4[nH]3)CC1)O2 [II-2, 1′-((1H-benzo[d]imidazol-2-yl)methyl)-N-hydroxyspiro[chromane-2,4′-piperidine]-6-carboxamide] | > 500
Cc1ccc(N2CC[C@@]3(CCc4cc(C(=O)NO)ccc4C3)C2=O)cn1 [Compound I-134, (S)-N-hydroxy-1′-(6-methylpyridin-3-yl)-2′-oxo-3,4-dihydro-1H-spiro[naphthalene-2,3′-pyrrolidine]-6-carboxamide] | ≤ 100
O=C(NO)c1ccc2c(c1)CCC1(CCN(CC3CCOCC3)C1=O)S2(=O)=O (stereo not drawn) [Compound I-241, N-hydroxy-2-oxo-1-((tetrahydro-2H-pyran-4-yl)methyl)spiro[pyrrolidine-3,2′-thiochromane]-6′-carboxamide 1′,1′-dioxide] | > 500
O=C(NO)c1ccc2c(c1)CCC1(CCNC1=O)S2(=O)=O (stereo not drawn) [Compound I-243, N-hydroxy-2-oxospiro[pyrrolidine-3,2′-thiochromane]-6′-carboxamide 1′,1′-dioxide] | > 500
O=C(NO)c1ccc2c(c1)CC[C@]1(CCCN(C3CCC3)C1=O)C2 (single isomer, unassigned) [Compound I-198] | ≤ 100
O=C(NO)c1ccc2c(c1)CC[C@]1(CCN(Cc3cccc(Cl)c3)C1=O)C2 [Compound I-54, (R)-1′-(3-chlorobenzyl)-N-hydroxy-2′-oxo-3,4-dihydro-1H-spiro[napthalene-2,3′-pyrrolidine]-6-carboxamide] | ≤ 100
CC(C)n1c(CN2CC[C@@]3(CCc4cc(C(=O)NO)ccc4C3)C2=O)nc2ccccc21 [Compound I-73, (S)-N-hydroxy-1′-((1-isopropyl-1H-benzo[d]imidazol-2-yl)methyl)-2′-oxo-3,4-dihydro-1H-spiro[naphthalene-2,3′-pyrrolidine]-6-carboxamide] | ≤ 100
O=C(NO)c1ccc2c(c1)CC[C@@]1(CCN(CC3COC3)C1=O)C2 [Compound I-122, (S)-N-hydroxy-1′-(oxetan-3-ylmethyl)-2′-oxo-3,4-dihydro-1H-spiro[naphthalene-2,3′-pyrrolidine]-6-carboxamide] | 100 to 500
O=C(NO)c1ccc2c(c1)CCC1(CCN(C(=O)N3CC4(CCOCC4)c4ccccc43)CC1)O2 [II-9, N-hydroxy-1′-(2′,3′,5′,6′-tetrahydrospiro[indoline-3,4′-pyran]-1-carbonyl)spiro[chromane-2,4′-piperidine]-6-carboxamide] | > 500
O=C(NO)c1ccc2c(c1)CC[C@]1(CCN(c3cccc4ccccc34)C1=O)C2 [Compound I-89, (R)-N-hydroxy-1′-(naphthalen-1-yl)-2′-oxo-3,4-dihydro-1H-spiro[naphthalene-2,3′-pyrrolidine]-6-carboxamide] | ≤ 100
N#Cc1cccc(N2CC[C@]3(CCc4cc(C(=O)NO)ccc4C3)C2=O)c1 [Compound I-112, (R)-1′-(3-cyanophenyl)-N-hydroxy-2′-oxo-3,4-dihydro-1H-spiro[naphthalene-2,3′-pyrrolidine]-6-carboxamide] | ≤ 100
O=C(NO)c1ccc2c(c1)CC[C@@]1(CCN(c3ccncc3)C1=O)C2 [Compound I-17, (S)-N-hydroxy-2′-oxo-1′-(pyridin-4-yl)-3,4-dihydro-1H-spiro[naphthalene-2,3′-pyrrolidine]-6-carboxamide] | ≤ 100
COc1ccc(C(=O)N2CCC3(CCc4cc(C(=O)NO)ccc4O3)CC2)cc1 [II-4, N-hydroxy-1′-(4-methoxybenzoyl)spiro[chromane-2,4′-piperidine]-6-carboxamide] | > 500
O=C(NO)c1ccc2c(c1)CC[C@@]1(CCN(c3ccccc3F)C1=O)C2 [Compound I-157, (S)-1′-(2-fluorophenyl)-N-hydroxy-2′-oxo-3,4-dihydro-1H-spiro[naphthalene-2,3′-pyrrolidine]-6-carboxamide] | ≤ 100
O=C(NO)c1ccc2c(c1)CC[C@@]1(CCN(c3ccc(F)c(F)c3)C1=O)C2 [Compound I-155, (S)-1′-(3,4-difluorophenyl)-N-hydroxy-2′-oxo-3,4-dihydro-1H-spiro[naphthalene-2,3′-pyrrolidine]-6-carboxamide] | ≤ 100
O=C(NO)c1ccc2c(c1)CCC1(CC(=O)N(c3cccnc3)C1)C2 (single isomer, unassigned) [Compound I-224] | ≤ 100
O=C(NO)c1ccc2c(c1)CC[C@]1(CCN(Cc3ccncc3)C1=O)C2 [Compound I-14, (R)-N-hydroxy-2′-oxo-1′-(pyridin-4-ylmethyl)-3,4-dihydro-1H-spiro[naphthalene-2,3′-pyrrolidine]-6-carboxamide] | > 500
Cc1ccc(N2CC[C@@]3(CCc4cc(C(=O)NO)ccc4C3)C2=O)c(C)c1 [Compound I-100, (S)-1′-(2,4-dimethylphenyl)-N-hydroxy-2′-oxo-3,4-dihydro-1H-spiro[naphthalene-2,3′-pyrrolidine]-6-carboxamide] | ≤ 100
O=C(NO)c1ccc2c(c1)CCC1(CCN(Cc3ccc(Cl)c(Cl)c3)C1=O)C2 (stereo not drawn) [Compound I-6, 1′-(3,4-dichlorobenzyl)-N-hydroxy-2′-oxo-3,4-dihydro-1H-spiro[naphthalene-2,3′-pyrrolidine]-6-carboxamide] | ≤ 100
Cc1ccc(N2CC[C@]3(CCc4cc(C(=O)NO)ccc4C3)C2=O)cn1 [Compound I-133, (R)-N-hydroxy-1′-(6-methylpyridin-3-yl)-2′-oxo-3,4-dihydro-1H-spiro[naphthalene-2,3′-pyrrolidine]-6-carboxamide] | ≤ 100
CC#CCN1CC[C@@]2(CCc3cc(C(=O)NO)ccc3C2)C1=O [Compound I-63, (S)-1′-(but-2-yn-1-yl)-N-hydroxy-2′-oxo-3,4-dihydro-1H-spiro[naphthalene-2,3′-pyrrolidine]-6-carboxamide] | ≤ 100
COc1ccc(N2CC[C@]3(CCc4cc(C(=O)NO)ccc4C3)C2=O)cc1 [Compound I-124, (R)-N-hydroxy-1′-(4-methoxyphenyl)-2′-oxo-3,4-dihydro-1H-spiro[naphthalene-2,3′-pyrrolidine]-6-carboxamide] | ≤ 100
COc1ccc(N2CC[C@]3(CCc4cc(C(=O)NO)ccc4C3)C2=O)cn1 [Compound I-114, (R)-N-hydroxy-1′-(6-methoxypyridin-3-yl)-2′-oxo-3,4-dihydro-1H-spiro[naphthalene-2,3′-pyrrolidine]-6-carboxamide] | ≤ 100
CCN1CC[C@@]2(CCc3cc(C(=O)NO)ccc3C2)C1=O [Compound I-162, (S)-1′-ethyl-N-hydroxy-2′-oxo-3,4-dihydro-H-spiro[naphthalene-2,3′-pyrrolidine]-6-carboxamide] | ≤ 100
